Measured values as given in publication PMC10582325 (Frontiers in Pharmacology, 2023).
Read-outs that look alike come from different tables or passages of the source.

Legend:
CYP2J2 = biological target: T1, CYP2J2 (Homo sapiens, UniProt P51589); assay: Direct CYP inhibition in human liver microsomes with marker probe substrates; format: in vitro ADME; details: HLM, CYP2J2 probe substrate
T1 sequence (P51589 1-502): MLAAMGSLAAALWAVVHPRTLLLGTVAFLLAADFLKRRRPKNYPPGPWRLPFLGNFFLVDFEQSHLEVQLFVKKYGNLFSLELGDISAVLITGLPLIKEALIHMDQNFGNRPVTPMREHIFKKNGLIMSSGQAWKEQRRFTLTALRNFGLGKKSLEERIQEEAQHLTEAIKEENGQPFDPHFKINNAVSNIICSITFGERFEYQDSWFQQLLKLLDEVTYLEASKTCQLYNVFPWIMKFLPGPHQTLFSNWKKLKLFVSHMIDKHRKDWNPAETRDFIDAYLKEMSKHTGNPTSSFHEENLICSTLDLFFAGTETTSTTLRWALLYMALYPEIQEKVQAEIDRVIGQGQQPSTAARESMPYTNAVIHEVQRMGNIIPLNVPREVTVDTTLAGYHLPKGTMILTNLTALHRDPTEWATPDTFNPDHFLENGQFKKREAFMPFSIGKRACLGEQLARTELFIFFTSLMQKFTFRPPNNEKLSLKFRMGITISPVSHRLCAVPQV
Method: (§1) The direct inhibition potential of TBI-166 against P450 was determined using the human marker probe reactions for P450 enzymes in human liver microsomes. Briefly, substrate concentrations in the incubation mixture were selected to be around their Km. Eight different concentrations of TBI-166 (from 0.05 to 10 μM) were incubated in human liver microsomes respectively. Incubations were carried out at 37°C in a shaking water bath. The incubation mixtures contained HLM (0.5 mg/mL), probe substrates in the presence or absence of TBI-166 in PBS (100 mM, containing MgCl2 3 mM, pH 7.4). The reactions were initiated by adding NADPH (1 mM) after preincubated the above mixtures at 37°C for 5 min. Positive controls without TBI-166 were included simultaneously. Stock solutions of the test drugs were prepared in acetonitrile. All measurements were performed in triplicate. […] Protein was removed by centrifugation at 4,000 g for 20 min and analyzed by LC-MS/MS ([Li Z. et al., 2019]).
(§2) Metabolites of probe substrates were separated using a Gemini C18 column (2.1 × 50 mm, i. d, […] particle size; United States). […] The analytes and internal standard were detected by positive ion spray in the multiple-reaction-monitoring modes (MRM).
(§3) IC50 values were calculated using nonlinear regression analysis with GraphPad Prism 7 (GraphPad Software Inc., San Diego, CA). […] All data are expressed as the mean ± SD. […]

CYP2B6 = biological target: T2, CYP2B6 (Homo sapiens, UniProt P20813); assay: as above; format: in vitro ADME; details: HLM, CYP2B6 probe substrate
T2 sequence (P20813 1-491): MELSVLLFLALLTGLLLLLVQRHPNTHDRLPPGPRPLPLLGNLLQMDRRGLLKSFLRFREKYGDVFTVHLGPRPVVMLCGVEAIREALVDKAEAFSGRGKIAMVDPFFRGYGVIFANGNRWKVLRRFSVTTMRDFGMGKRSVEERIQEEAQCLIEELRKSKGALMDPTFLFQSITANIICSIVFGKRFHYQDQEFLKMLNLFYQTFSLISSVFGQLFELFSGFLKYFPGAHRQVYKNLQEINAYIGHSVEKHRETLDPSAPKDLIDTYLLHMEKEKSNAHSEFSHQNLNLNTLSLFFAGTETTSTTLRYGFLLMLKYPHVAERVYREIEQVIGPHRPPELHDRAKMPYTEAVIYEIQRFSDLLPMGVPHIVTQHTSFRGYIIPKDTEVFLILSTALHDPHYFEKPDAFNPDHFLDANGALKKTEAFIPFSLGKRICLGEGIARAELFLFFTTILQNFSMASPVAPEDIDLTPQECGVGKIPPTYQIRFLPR
Method: as §1, §2, §3

CYP2A6 = biological target: T3, CYP2A6 (Homo sapiens, UniProt P11509); assay: as above; details: read-out: Inhibition, IC50; HLM, CYP2A6 probe substrate
T3 sequence (P11509 1-494): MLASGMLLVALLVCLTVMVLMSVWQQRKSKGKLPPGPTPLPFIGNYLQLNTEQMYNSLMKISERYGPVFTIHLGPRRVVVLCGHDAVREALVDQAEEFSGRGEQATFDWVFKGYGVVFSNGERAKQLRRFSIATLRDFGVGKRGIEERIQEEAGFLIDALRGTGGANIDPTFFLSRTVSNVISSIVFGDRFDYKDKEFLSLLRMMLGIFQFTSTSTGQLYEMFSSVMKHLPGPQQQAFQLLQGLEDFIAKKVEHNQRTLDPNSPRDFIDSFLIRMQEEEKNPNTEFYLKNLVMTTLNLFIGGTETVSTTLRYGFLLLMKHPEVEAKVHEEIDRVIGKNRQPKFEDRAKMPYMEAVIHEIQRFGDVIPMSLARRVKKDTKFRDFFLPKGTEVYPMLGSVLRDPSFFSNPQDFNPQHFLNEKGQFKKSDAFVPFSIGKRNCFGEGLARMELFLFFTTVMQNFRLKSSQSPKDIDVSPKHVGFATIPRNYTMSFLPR

[1] = Lung and spleen tissue exposure in BALB/c mice
CYP3A4 = CYP3A4 (Homo sapiens, UniProt P08684); details: for IC50: read-out: Inhibition, IC50, HLM
Sequence of CYP3A4 (P08684 2-503): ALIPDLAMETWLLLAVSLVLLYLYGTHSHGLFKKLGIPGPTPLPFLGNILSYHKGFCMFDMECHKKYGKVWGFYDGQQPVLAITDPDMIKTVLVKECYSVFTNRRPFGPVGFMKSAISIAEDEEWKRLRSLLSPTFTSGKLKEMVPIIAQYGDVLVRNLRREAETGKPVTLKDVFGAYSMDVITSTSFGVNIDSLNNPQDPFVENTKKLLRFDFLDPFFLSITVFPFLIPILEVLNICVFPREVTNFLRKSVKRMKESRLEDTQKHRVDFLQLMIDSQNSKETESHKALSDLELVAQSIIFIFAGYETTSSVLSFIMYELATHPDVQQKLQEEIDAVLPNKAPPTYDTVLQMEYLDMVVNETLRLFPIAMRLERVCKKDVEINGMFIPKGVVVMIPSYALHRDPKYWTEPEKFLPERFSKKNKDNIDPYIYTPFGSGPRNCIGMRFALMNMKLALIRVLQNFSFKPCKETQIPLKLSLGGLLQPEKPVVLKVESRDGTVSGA

COc1ncccc1Nc1cc2nc3ccccc3n(-c3ccc(OC(F)(F)F)cc3)c-2cc1=NC1CCC(OC)CC1 (stereo not shown) [TBI-166, Pyrifazimine]
IC50 (CYP2J2): > 50 µM
IC50 (CYP2B6): 4.35 µM
IC50 (CYP2A6): 1.38 µM
AUC(0-t) ([1]; Lung, BDQ + TBI-166 group): 321.07 ± 52.91 µg·h/g
tissue-to-plasma ratio (Kp) ([1]; Lung, BDQ + TBI-166 group): 5.17
AUC(0-t) ([1]; Lung, TBI-166 group): 378.66 ± 104.67 µg·h/g
tissue-to-plasma ratio (Kp) ([1]; Lung, TBI-166 group): 5.49
AUC(0-t) ([1]; Spleen, BDQ + TBI-166 group): 483.54 ± 94.75 µg·h/g
tissue-to-plasma ratio (Kp) ([1]; Spleen, BDQ + TBI-166 group): 7.79
AUC(0-t) ([1]; Spleen, TBI-166 group): 296.09 ± 27.68 µg·h/g
tissue-to-plasma ratio (Kp) ([1]; Spleen, TBI-166 group): 4.29
exposure (AUC0-t) with vs without coadministration ([1]; lungs): similar
increase of exposure (AUC0-t) after coadministration of BDQ with TBI-166 ([1]; spleens): 1.5 fold
inhibitor strength class for CYP3A4 pathway (CYP3A4; based on IC50 with testosterone): moderate (1 µM < IC50 < 10 µM)
IC50 (CYP3A4; CYP3A4 MDZ (midazolam as probe substrate)): 17.4 µM
IC50 (CYP3A4; CYP3A4 TEST (testosterone as probe substrate)): 2.65 µM
